# Key:
# [1] = target: T1, UGT3-SEQ ID NO: 74 (Stevia rebaudiana, UniProt Q6VAA6); assay type: biochemical; details: CFE 0.05 mg/mL, UDP-glucose 1 mM
# T1 construct: made in house; host or cells: Saccharomyces cerevisiae; unpurified soluble cell extract (CFE) from bead-lysed biomass
# T1 sequence (Q6VAA6 1-460): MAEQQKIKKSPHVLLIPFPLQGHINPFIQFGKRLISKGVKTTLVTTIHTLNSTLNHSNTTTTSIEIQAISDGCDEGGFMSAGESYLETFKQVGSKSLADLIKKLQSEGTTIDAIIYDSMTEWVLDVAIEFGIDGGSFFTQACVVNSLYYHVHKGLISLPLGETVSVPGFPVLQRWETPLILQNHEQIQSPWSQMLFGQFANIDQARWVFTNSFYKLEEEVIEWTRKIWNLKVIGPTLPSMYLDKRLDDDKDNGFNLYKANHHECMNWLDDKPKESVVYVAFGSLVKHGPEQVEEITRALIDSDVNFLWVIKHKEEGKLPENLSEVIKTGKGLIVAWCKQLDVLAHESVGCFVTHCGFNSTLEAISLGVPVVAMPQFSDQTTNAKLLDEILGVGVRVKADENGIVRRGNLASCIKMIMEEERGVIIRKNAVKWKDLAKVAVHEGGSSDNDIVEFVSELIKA
# [2] = Type II diabetics; studies suggest; cited from earlier work
# [3] = mildly hypertensive patients; studies suggest; cited from earlier work
# [4] = suitable for use in carbonated beverages and many other foods; cited from earlier work
# [5] = sweetness relative to sucrose; cited from earlier work
# [6] = test system: CFE obtained from the Yarrowia lipolitica steviol glycoside producing strains; test: bioconversion of rebaudiosideA with CFE of Yarrowia lipolitica steviol glycoside producing strains, UDP-glucose, LC-MS; assay type: biochemical; details: rebaudiosideA 100-500 μM; CFE 0.1 mg/mL; UDP-glucose 1 mM; products rebaudioside D and rebaudioside M
# Excerpt: Methods to obtain yeast strains expressing constructs encoding the steviol glycoside production pathway are described in WO2013/110673 and WO2015/007748. Here, different Yarrowia lipolitica strains were used: the parent strain (as negative control) and strains expressing the whole steviol glycoside production pathway. Cells were grow o/n in YEPD medium. After determining the optical density at 600 nm (respectively 1.00×10^10 cells/mL for the parent strain cultivation and 6.00-8.57×10^9 cells/mL for different Yarrowia lipolitica steviol glycoside producing strains), cells were lysed with 0.5 mm zirconia beads (see example 2 for details). The protein concentration of the thus obtained CFE were determined using Bradford reagent. The actual obtained protein concentrations ranged from 0,453 mg/mL to 0,771 mg/mL.
# A dilution series of rebaudiosideA stock solutions was prepared at 0, 500, 1000, 1500, 2000 and 2500 μM in Van Eunen buffer. The CFE's were diluted in Van Eunen buffer to a concentration of 0.125 mg/m L. A 5 mM stock solution of UDP-glucose was prepared.
# The reactions were set-up as described in example 2, only now the concentration of the CFE in the final reaction was doubled. Multiple samples were taken to follow the reactions.
# In the reactions the final concentrations were: CFE, 0.1 mg/mL; UDP-glucose, 1 mM; rebaudiosideA, at 0, 100, 200, 300, 400, 500 μM. […]
compound,measurement,setting,value
rebaudioside B,glycosylation of rebaudiosideB into rebaudiosideA by spent biomass derived material,"[1]; rebaudioside B 50-200 μM, samples 0-30 min, FIG. 2",very efficiently glycosylated
C=C1C[C@@]23CC[C@H]4[C@@](C)(CCC[C@@]4(C)C(=O)O[C@@H]4O[C@H](CO)[C@@H](O)[C@H](O)[C@H]4O)[C@@H]2CC[C@]1(O[C@@H]1O[C@H](CO)[C@@H](O)[C@H](O)[C@H]1O[C@@H]1O[C@H](CO)[C@@H](O)[C@H](O)[C@H]1O)C3 [stevioside],effect on blood glucose levels,[2],can reduce blood glucose levels
same,effect on blood pressure,[3],can reduce blood pressure
same,heat and pH stability,[4],heat and pH stable
C=C1C[C@@]23CC[C@H]4[C@@](C)(CCC[C@@]4(C)C(=O)O[C@@H]4O[C@H](CO)[C@@H](O)[C@H](O)[C@H]4O[C@@H]4O[C@H](CO)[C@@H](O)[C@H](O)[C@H]4O)[C@@H]2CC[C@]1(O[C@@H]1O[C@H](CO)[C@@H](O)[C@H](O[C@@H]2O[C@H](CO)[C@@H](O)[C@H](O)[C@H]2O)[C@H]1O[C@@H]1O[C@H](CO)[C@@H](O)[C@H](O)[C@H]1O)C3 [rebaudioside D],times sweeter than sucrose,[5],about 200 times
C=C1C[C@@]23CC[C@H]4[C@@](C)(CCC[C@@]4(C)C(=O)O[C@@H]4O[C@H](CO)[C@@H](O)[C@H](O)[C@H]4O)[C@@H]2CC[C@]1(O[C@@H]1O[C@H](CO)[C@@H](O)[C@H](O[C@@H]2O[C@H](CO)[C@@H](O)[C@H](O)[C@H]2O)[C@H]1O[C@@H]1O[C@H](CO)[C@@H](O)[C@H](O)[C@H]1O)C3 [rebaudioside A],heat and pH stability,[4],heat and pH stable
same,glycosylated products detected by LC-MS,[6],two glycosylated products of rebaudioside A were detected
same,Vmax of rebaudiosideA formation,"[1]; substrate rebaudioside B 0-200 μM, 30° C., calculated with GraphPad 5",0.0549±0.004 μmol/mg protein/min

# From patent publication US10472661B2, “Method for increasing glycosylation of a composition comprising steviol glycosides” (DSM IP ASSETS B.V., priority 2014, dated 2019)
